Assay results published in patent publication EP0373543A2, “Diagnostic media and assay for detecting fungicide resistance” (BASF Corporation, priority 1988, dated 1990).

Experiments:
Type in all cases: cell-based
[1] = test system: Botrytis cinerea; assay: Spore germination on agar-dextrose medium containing vinclozolin, microscopic examination (Example 1); conditions: 18 hours room temperature
Description: (§1) Resistant and sensitive fungi were initially obtained from crops of cultivated fruit in the field. The percent germination reported below was calculated by microscopic evaluation. An average of four fields of view per plate was examined with each field of view having a total of about 100 to 300 spores. The total number of spores in each field of view was counted then either the number germinated or not germinated, whichever was easiest to count, was determined. These numbers were then combined appropriately and the percent germination calculated. Unless otherwise noted, resistant isolates are given a numerical designation and sensitive isolates a letter designation.
Botrytis cinerea of known sensitivity and resistance to vinclozolin were cultured on potato dextrose agar prepared according to manufacturer's directions and Preparation Example 2 for 2 weeks and induced to sporulate under long wave ultraviolet light. Spores were transferred using a sterile cotton tipped swab to a solid medium containing 20 g of agar, 20 g dextrose and the amount of vinclozolin in parts per million per liter of media shown in Table 1 below. The innoculated media was incubated at room temperature for 18 hours and microscopically examined for germination; the results of this assay are set forth below in Table 1 where "BC" means Botrytis cinerea.

[2] = test system: Botrytis cinerea; assay: Color change diameter on bromcresol purple media containing vinclozolin (Example 2); design: key to COLOR CHANGE DIAMETER: T = only slight color change; conditions: for COLOR CHANGE DIAMETER: 20 hours
Description: To a stock solution of 0.4 g bromcresol purple in 260 mls of 0.01N sodium hydroxide, either 40 g of potato dextrose agar (PDA) or 40 g dextrose and 20 g agar (WA-dextrose medium) were added and the total volume brought up to 1 liter using distilled water. After autoclaving the media, a solution of vinclozolin in 5 mls of ethanol was added to afford 5 or 10 ppm concentrations and dispensed into petri plates (10 ml/plate). Sporulating cultures of Botrytis cinerea and Rhizopus nigricans (also known as Rhizopus stolonifer) were grown for two weeks on potato dextrose agar. Spores were transferred to the diagnostic media using sterile cotton tipped swabs and incubated for 20 hours at room temperature. The media was macroscopically examined and the diameter of color change detectable in the media was then measured.

[3] = test system: Botrytis cinerea; assay: Color change diameter on bromothymol blue diagnostic media at pH 7.5-8.5 (Example 3); design: key: T = only slight color change
Description: (§2) Diagnostic media was prepared substantially as described above in Preparation Example 1 except that bromothymol blue rather than bromcresol purple and only 4 g of dextrose was used per liter and the pH adjusted to 7.5, 8.0 and 8.5. These media were then inoculated with spores of either Botrytis cinerea or Rhizopus nigricans isolates substantially as previously described. The inoculated media was then incubated for 18 hours at room temperature and the results recorded below in Table III.

[4] = test system: Rhizopus nigricans; assay: as above; design: key: T = only slight color change
Description: as §2

[5] = test system: Botrytis cinerea; assay: Microscopic spore germination on the Example 3 plates; conditions: microscopically examined
Description: as §1, §2
Strong color reactions were only observed from the resistant Botrytis cinerea isolates. Only slight reactions, at most, occurred from the Rhizopus nigricans inoculations. Example 4

[6] = test system: Botrytis cinerea; assay: Color change response at varied vinclozolin concentration (Example 4); design: key: T = only slight color change; conditions: pH 5.5, about 48 hours
Description: Diagnostic media was prepared substantially as described above in Preparation Example 1 and the pH adjusted to 5.5 except that the vinclozolin concentrations in the media varied from about 10 ppm to 1000 ppm. The media was inoculated with 1 vinclozolin sensitive (BC-A) and 1 vinclozolin resistant isolate (BC-4) of Botrytis cinerea) and incubated at room temperature for about 48 hours.

[7] = test system: Botrytis cinerea; assay: Color change diameter on bromcresol purple media containing vinclozolin (Example 2); conditions: resistant isolates of Botrytis cinerea only; water dextrose media; after 4 days

C=CC1(C)OC(=O)N(c2cc(Cl)cc(Cl)c2)C1=O (stereo not shown) [vinclozolin]
Percent Germination ([1]; isolate BC-1 resistant, vinclozolin 2.5 ppm): 100%
Percent Germination ([1]; isolate BC-1 resistant, vinclozolin 5.0 ppm): 100%
Percent Germination ([1]; isolate BC-1 resistant, vinclozolin 10.0 ppm): 100%
Percent Germination ([1]; isolate BC-2 res., vinclozolin 2.5 ppm): 100%
Percent Germination ([1]; isolate BC-2 res., vinclozolin 5.0 ppm): 100%
Percent Germination ([1]; isolate BC-2 res., vinclozolin 10.0 ppm): 100%
Percent Germination ([1]; isolate BC-3 res., vinclozolin 2.5 ppm): 100%
Percent Germination ([1]; isolate BC-3 res., vinclozolin 5.0 ppm): 90%
Percent Germination ([1]; isolate BC-3 res., vinclozolin 10.0 ppm): 80%
Percent Germination ([1]; isolate BC-4 res., vinclozolin 2.5 ppm): 100%
Percent Germination ([1]; isolate BC-4 res., vinclozolin 5.0 ppm): 100%
Percent Germination ([1]; isolate BC-4 res., vinclozolin 10.0 ppm): 100%
Percent Germination ([1]; isolate BC-5 res., vinclozolin 2.5 ppm): 100%
Percent Germination ([1]; isolate BC-5 res., vinclozolin 5.0 ppm): 100%
Percent Germination ([1]; isolate BC-5 res., vinclozolin 10.0 ppm): 90%
Percent Germination ([1]; isolate BC-6 res., vinclozolin 2.5 ppm): 100%
Percent Germination ([1]; isolate BC-6 res., vinclozolin 5.0 ppm): 100%
Percent Germination ([1]; isolate BC-6 res., vinclozolin 10.0 ppm): 100%
Percent Germination ([1]; isolate BC-A sensitive, vinclozolin 2.5 ppm): 0%
Percent Germination ([1]; isolate BC-A sensitive, vinclozolin 5.0 ppm): 0%
Percent Germination ([1]; isolate BC-A sensitive, vinclozolin 10.0 ppm): 0%
Percent Germination ([1]; isolate BC-B sens., vinclozolin 2.5 ppm): 0%
Percent Germination ([1]; isolate BC-B sens., vinclozolin 5.0 ppm): 0%
Percent Germination ([1]; isolate BC-B sens., vinclozolin 10.0 ppm): 0%
Percent Germination ([1]; isolate BC-C sens., vinclozolin 2.5 ppm): 0%
Percent Germination ([1]; isolate BC-C sens., vinclozolin 5.0 ppm): 0%
Percent Germination ([1]; isolate BC-C sens., vinclozolin 10.0 ppm): 0%
Percent Germination ([1]; isolate BC-D sens., vinclozolin 2.5 ppm): 0%
Percent Germination ([1]; isolate BC-D sens., vinclozolin 5.0 ppm): 0%
Percent Germination ([1]; isolate BC-D sens., vinclozolin 10.0 ppm): 0%
COLOR CHANGE DIAMETER ([2]; isolate BC-1 res., PDA media, vinclozolin 5.0ppm): 5 mm
COLOR CHANGE DIAMETER ([2]; isolate BC-1 res., PDA media, vinclozolin 10.0ppm): 0 mm
COLOR CHANGE DIAMETER ([2]; isolate BC-1 res., WA-dextrose media, vinclozolin 5.0ppm): T^a
COLOR CHANGE DIAMETER ([2]; isolate BC-1 res., WA-dextrose media, vinclozolin 10.0ppm): 5 mm
COLOR CHANGE DIAMETER ([2]; isolate BC-2 res., PDA media, vinclozolin 5.0ppm): 10 mm
COLOR CHANGE DIAMETER ([2]; isolate BC-2 res., PDA media, vinclozolin 10.0ppm): 0 mm
COLOR CHANGE DIAMETER ([2]; isolate BC-2 res., WA-dextrose media, vinclozolin 5.0ppm): 10 mm
COLOR CHANGE DIAMETER ([2]; isolate BC-2 res., WA-dextrose media, vinclozolin 10.0ppm): 5 mm
COLOR CHANGE DIAMETER ([2]; isolate BC-3 resistant, PDA media, vinclozolin 5.0ppm): 10 mm
COLOR CHANGE DIAMETER ([2]; isolate BC-3 resistant, PDA media, vinclozolin 10.0ppm): 0 mm
COLOR CHANGE DIAMETER ([2]; isolate BC-3 resistant, WA-dextrose media, vinclozolin 5.0ppm): 10 mm
COLOR CHANGE DIAMETER ([2]; isolate BC-3 resistant, WA-dextrose media, vinclozolin 10.0ppm): 10 mm
COLOR CHANGE DIAMETER ([2]; isolate BC-A sensitive, PDA media, vinclozolin 5.0ppm): 0 mm
COLOR CHANGE DIAMETER ([2]; isolate BC-A sensitive, PDA media, vinclozolin 10.0ppm): 0 mm
COLOR CHANGE DIAMETER ([2]; isolate BC-A sensitive, WA-dextrose media, vinclozolin 5.0ppm): 0 mm
COLOR CHANGE DIAMETER ([2]; isolate BC-A sensitive, WA-dextrose media, vinclozolin 10.0ppm): 0 mm
COLOR CHANGE DIAMETER ([2]; isolate BC-B sens., PDA media, vinclozolin 5.0ppm): 0 mm
COLOR CHANGE DIAMETER ([2]; isolate BC-B sens., PDA media, vinclozolin 10.0ppm): 0 mm
COLOR CHANGE DIAMETER ([2]; isolate BC-B sens., WA-dextrose media, vinclozolin 5.0ppm): 0 mm
COLOR CHANGE DIAMETER ([2]; isolate BC-B sens., WA-dextrose media, vinclozolin 10.0ppm): 0 mm
COLOR CHANGE DIAMETER ([2]; isolate BC-D sens., PDA media, vinclozolin 5.0ppm): 0 mm
COLOR CHANGE DIAMETER ([2]; isolate BC-D sens., PDA media, vinclozolin 10.0ppm): 0 mm
COLOR CHANGE DIAMETER ([2]; isolate BC-D sens., WA-dextrose media, vinclozolin 5.0ppm): 0 mm
COLOR CHANGE DIAMETER ([2]; isolate BC-D sens., WA-dextrose media, vinclozolin 10.0ppm): 0 mm
color change ([2]; resistant isolates, PDA media containing 10 ppm of vinclozolin, after 4 days): no measurable color change
DIAMETER OF COLOR CHANGE ([3]; isolate BC B sens., pH 7.5, 18 hours): 0 mm
DIAMETER OF COLOR CHANGE ([3]; isolate BC B sens., pH 8.0, 18 hours): 0 mm
DIAMETER OF COLOR CHANGE ([3]; isolate BC B sens., pH 8.5, 18 hours): 0 mm
DIAMETER OF COLOR CHANGE ([3]; isolate BC-1 res., pH 7.5, 18 hours): 12 mm
DIAMETER OF COLOR CHANGE ([3]; isolate BC-1 res., pH 8.0, 18 hours): 6 mm
DIAMETER OF COLOR CHANGE ([3]; isolate BC-1 res., pH 8.5, 18 hours): 0 mm
DIAMETER OF COLOR CHANGE ([3]; isolate BC-2 res., pH 7.5, 18 hours): 12 mm
DIAMETER OF COLOR CHANGE ([3]; isolate BC-2 res., pH 8.0, 18 hours): 6 mm
DIAMETER OF COLOR CHANGE ([3]; isolate BC-2 res., pH 8.5, 18 hours): T
DIAMETER OF COLOR CHANGE ([3]; isolate BC-3 res., pH 7.5, 18 hours): 18 mm
DIAMETER OF COLOR CHANGE ([3]; isolate BC-3 res., pH 8.0, 18 hours): 12 mm
DIAMETER OF COLOR CHANGE ([3]; isolate BC-3 res., pH 8.5, 18 hours): 12 mm
DIAMETER OF COLOR CHANGE ([3]; isolate BC-4 res., pH 7.5, 18 hours): 12 mm
DIAMETER OF COLOR CHANGE ([3]; isolate BC-4 res., pH 8.0, 18 hours): 12 mm
DIAMETER OF COLOR CHANGE ([3]; isolate BC-4 res., pH 8.5, 18 hours): 12 mm
DIAMETER OF COLOR CHANGE ([3]; isolate BC-5 res., pH 7.5, 18 hours): 6 mm
DIAMETER OF COLOR CHANGE ([3]; isolate BC-5 res., pH 8.0, 18 hours): 3 mm
DIAMETER OF COLOR CHANGE ([3]; isolate BC-5 res., pH 8.5, 18 hours): 6 mm
DIAMETER OF COLOR CHANGE ([3]; isolate BC-6 resistant, pH 7.5, 18 hours): 6 mm
DIAMETER OF COLOR CHANGE ([3]; isolate BC-6 resistant, pH 8.0, 18 hours): 3 mm
DIAMETER OF COLOR CHANGE ([3]; isolate BC-6 resistant, pH 8.5, 18 hours): 6 mm
DIAMETER OF COLOR CHANGE ([3]; isolate BC-A sensitive, pH 7.5, 18 hours): 0 mm
DIAMETER OF COLOR CHANGE ([3]; isolate BC-A sensitive, pH 8.0, 18 hours): 0 mm
DIAMETER OF COLOR CHANGE ([3]; isolate BC-A sensitive, pH 8.5, 18 hours): 0 mm
DIAMETER OF COLOR CHANGE ([3]; isolate BC-C sens., pH 7.5, 18 hours): T
DIAMETER OF COLOR CHANGE ([3]; isolate BC-C sens., pH 8.0, 18 hours): 0 mm
DIAMETER OF COLOR CHANGE ([3]; isolate BC-C sens., pH 8.5, 18 hours): 0 mm
DIAMETER OF COLOR CHANGE ([3]; isolate BC-D sens., pH 7.5, 18 hours): T
DIAMETER OF COLOR CHANGE ([3]; isolate BC-D sens., pH 8.0, 18 hours): 0 mm
DIAMETER OF COLOR CHANGE ([3]; isolate BC-D sens., pH 8.5, 18 hours): 0 mm
DIAMETER OF COLOR CHANGE ([4]; isolate RP-3, pH 7.5, 18 hours): T
DIAMETER OF COLOR CHANGE ([4]; isolate RP-3, pH 8.0, 18 hours): T
DIAMETER OF COLOR CHANGE ([4]; isolate RP-3, pH 8.5, 18 hours): T
DIAMETER OF COLOR CHANGE ([4]; isolate RP-4, pH 7.5, 18 hours): T
DIAMETER OF COLOR CHANGE ([4]; isolate RP-4, pH 8.0, 18 hours): T
DIAMETER OF COLOR CHANGE ([4]; isolate RP-4, pH 8.5, 18 hours): T
spore germination ([5]; all of the resistant isolates): greater than 90%
spore germination ([5]; sensitive isolate spores): no germination
Color Change Response ([6]; isolate BC-4 (vinclozolin resistant), vinclozolin 500 ppm): T
Color Change Response ([6]; isolate BC-4 (vinclozolin resistant), vinclozolin 1000 ppm): T
Color Change Response ([6]; isolate BC-A (vinclozolin sensitive), vinclozolin 1000 ppm): T
diameter color reaction [7]: 25 mm
